These results are taken from patent US20250179047A1, “5-[7-(3,4-DIHYDRO-1H-ISOQUINOLINE-2-CARBONYL)-1,2,3,4 TETRAHYDROISOQUINOLIN-6-YL]-1H-PYRROLE-3-CARBOXAMIDE DERIVATIVES, PHARMACEUTICAL COMPOSITIONS CONTAINING THEM AND THEIR USES AS PRO-APOPTOTIC AGENTS” (LES LABORATOIRES SERVIER, priority 2022, published 2025).

The term IC50 denotes the concentration that gives 50% inhibition. Read a low IC50 as higher potency.

Assay [1] concerns KMS-12-PE Bcl-2 G101V. In words: In vitro cytotoxicity CellTiter-Glo 48 h, KMS-12-PE Bcl-2 G101V. Type of assay: cell-based. The settings on record: for Ratio (G101V/WT): C50 KMS-12-PE Bcl-2 G101V over C50 KMS-12-PE Bcl-2 WT; for IC50: Homo sapiens, KMS-12-PE, 48 h, CellTiter-Glo, C50 = concentration needed to reach 50% of the cellular viability. As for the experimental part: KMS-12-PE (ACC 606) were purchased from the Leibniz-Institute DSMZ (Braunschweig, Germany) and were grown at 37° C. in a humidified atmosphere with […] in media recommended by the suppliers. Lentiviral particles containing Bcl-2 wild type (also named “Bcl2 WT”) and Bcl-2 mutated on G101V (also named “Bcl2 G101V”) were cloned into pcLV-CMV-DEST-IRES-TagRFP. Lentiviral particles (1×106) were mixed with Polybrene at 8 µg/ml and transduced by spinoculation for 1 h at 32° C. and incubated overnight. After 8 days, TagRFP positive-cells were sorted by FACS. BCL2 expression was monitored by immunoblotting using anti-Flag and anti-BCL2 antibodies.
Cellular viability was monitored with the cell viability assay (CellTiter-Glo®) on KMS-12-PE WT and G101V cell lines. The CellTiter-Glo® (CTG) Luminescent Cell Viability Assay (from Promega) is a homogeneous method to determine the number of viable cells in culture based on quantitation of the ATP present, which signals the presence of metabolically active cells.
Dose response of compounds are performed with 10 mM stock solutions (DMSO), 11-points curve, in a 384-well compound plate. The assay plate is prepared by stamping 40 nL from compound dilution plate of all different concentrations (e.g. 10 mM to have final […] assay test) into a cell culture microplate, using Echo acoustic liquid handling (Labcyte, Beckman). 40 μl of cell solution is added and cells are incubated with compounds for 48 h at 37° C., 5% CO2. CTG was added to the cells (according to the manufacturer instructions) and luminescence intensity was recorded using the Pherastar plate reader (BMG).
This assay provides in vitro cellular potency of the tested Bcl-2 inhibitors, measuring the C50, defined as the concentration needed to reach 50% of the cellular viability.

The target of assay [2] is BCL2 D103Y (Homo sapiens, UniProt P10415, D103Y). The assay can be described thus: TR-FRET competitive binding assay, BCL2 D103Y. The settings on record: Ki determined from IC50, read-out: TR_FRET EKI_Bcl2 D103Y. The procedure, abridged:
(§1)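 Ki derived from IC50 (11-point dilution, 520/495 nm emission ratio) for displacing a fluorescein-labelled PUMA peptide (2 or 20 nM). Target was 0.5 nM E. coli-expressed Halo-tagged BCL2 (1-207) or BCLXL (2-196), terbium-labelled on Halo. Incubation 2 h at 23°C in pH 7.5 Hepes with 150 mM NaCl and 5% DMSO.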

In assay [3] the target is BCLXL WT (Homo sapiens (Human), UniProt Q07817). The assay can be described thus: TR-FRET competitive binding assay, BCLXL WT. The note with it: for Ki: BCLXL WT, Ki determined from IC50, read-out: TR_FRET EKI BclxL; for TR_FRET EKI BCLxL/WT selectivty ratio: ratio Ki BCLxL / Ki BCL2 WT. The procedure, abridged:
as §1

For assay [4], the system named is BCL2 G101V. The assay can be described thus: TR-FRET competitive binding assay, BCL2 G101V. The settings on record: for TR_FRET EKI G101V/WT selectivty ratio: ratio Ki BCL2 G101V / Ki BCL2 WT. Also on record: species or system human. The procedure, abridged: as §1
Background: TR-FRET usually uses a lanthanide donor and a delayed reading to cut background.

Assay [5] concerns the target BCL2 G101V (Homo sapiens, UniProt P10415, G101V). In words: TR-FRET competitive binding assay, BCL2 G101V. The note with it: BCL2 G101V; Ki determined from IC50; read-out: TR_FRET EKI_Bcl2 G101V. The procedure, abridged:
as §1

The subject of assay [6] is KMS-12-PE Bcl-2 WT. In words: In vitro cytotoxicity CellTiter-Glo 48 h, KMS-12-PE Bcl-2 WT. Type of assay: cell-based. The note with it: Homo sapiens, KMS-12-PE, C50 = concentration needed to reach 50% of the cellular viability. The procedure, abridged: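 Bcl-2 WT- and G101V-expressing KMS-12-PE cells; 48 h treatment at 37 °C, 5% CO2; CellTiter-Glo ATP luminescence; C50 from 11-point curves.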
For orientation: ATP-based viability assays read luminescence as a measure of living cells.

Assay [7] concerns the target BCL2 WT (Homo sapiens (Human), UniProt P10415). In words: TR-FRET competitive binding assay, BCL2 WT. In short, it runs like this: as §1
The mark [8] stands for this setting: Ki determined from IC50, read-out: TR_FRET EKI_Bcl2 WT.

Like-named read-outs stand apart in the source and are kept apart here.

Sequence of BCLXL WT (Q07817 other isoform, or with tags, fused parts or gaps): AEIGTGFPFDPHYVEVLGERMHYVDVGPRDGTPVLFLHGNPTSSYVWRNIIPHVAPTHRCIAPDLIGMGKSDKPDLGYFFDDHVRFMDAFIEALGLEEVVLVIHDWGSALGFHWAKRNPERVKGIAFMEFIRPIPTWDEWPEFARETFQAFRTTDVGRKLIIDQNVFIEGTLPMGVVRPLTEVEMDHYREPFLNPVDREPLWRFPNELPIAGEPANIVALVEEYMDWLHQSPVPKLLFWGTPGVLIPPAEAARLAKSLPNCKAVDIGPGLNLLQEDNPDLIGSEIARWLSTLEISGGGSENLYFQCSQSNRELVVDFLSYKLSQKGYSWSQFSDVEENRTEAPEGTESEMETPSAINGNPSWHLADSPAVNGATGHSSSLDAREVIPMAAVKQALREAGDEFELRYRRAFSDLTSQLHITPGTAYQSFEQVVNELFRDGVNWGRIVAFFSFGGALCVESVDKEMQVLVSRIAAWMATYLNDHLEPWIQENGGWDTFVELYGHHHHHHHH

As to `Cc1c(N(C(=O)c2cc(-c3cc4c(cc3C(=O)N3Cc5ccccc5C[C@H]3CN3CCCCC3)CN(C(=O)Cc3ccc(OCCN(C)C5CC5)cc3F)CC4)n(C)c2C)c2ccc(O)cc2)cc(C#N)n1C` [Example 88, N-(5-cyano-1,2-dimethylpyrrol-3-yl)-5-{2-[2-(4-{2-[cyclopropyl(methyl)amino]ethoxy}-2-fluorophenyl)acetyl]-7-{[(3S)-3-(piperidin-1-ylmethyl)-3,4-dihydro-1H-isoquinolin-2-yl]carbonyl}-3,4-dihydro-1H-isoquinolin-6-yl}-N-(4-hydroxyphenyl)-1,2-dimethylpyrrole-3-carboxamide], the “Ratio (G101V/WT)” value in assay [1] came out at 4.67. For the same compound, the IC50 is 0.0296 µM in assay [1] and 0.0063 µM in assay [6]. The Ki in assay [2] stood at 0.27 nM; in assay [3] it was 1.7 nM; in assay [5], 0.6 nM; in assay [7] (setting [8]) it was 0.1 nM. Moreover, the “TR_FRET EKI BCLxL/WT selectivty ratio” value in assay [3] was found to be 17.0. For the same compound, the “TR_FRET EKI G101V/WT selectivty ratio” value in assay [4] was found to be 5.9.
Take `Cc1c(N(C(=O)c2cc(-c3cc4c(cc3C(=O)N3Cc5ccccc5C[C@H]3CN3CCCCC3)CN(C(=O)Cc3ccc(OCCN5CCC(F)CC5)cc3)CC4)n(C)c2C)c2ccc(O)cc2)cc(C#N)n1C` [Example 76, N-(5-cyano-1,2-dimethylpyrrol-3-yl)-5-[2-(2-{4-[2-(4-fluoropiperidin-1-yl)ethoxy]phenyl}acetyl)-7-{[(3S)-3-(piperidin-1-ylmethyl)-3,4-dihydro-1H-isoquinolin-2-yl]carbonyl}-3,4-dihydro-1H-isoquinolin-6-yl]-N-(4-hydroxyphenyl)-1,2-dimethylpyrrole-3-carboxamide]: the “Ratio (G101V/WT)” value in assay [1] worked out at 5.28. Moreover, the IC50 in assay [1] was found to be 0.0871 µM; in assay [6], 0.0165 µM. The Ki in assay [2] came out at 0.18 nM; in assay [3], 1.8 nM; in assay [5] it was 0.3 nM; in assay [7] (setting [8]), 0.06 nM. For the same compound, the “TR_FRET EKI BCLxL/WT selectivty ratio” value in assay [3] is on record as 32.7. For the same compound, the “TR_FRET EKI G101V/WT selectivty ratio” value in assay [4] turned out to be 5.5.
As for `Cc1c(N(C(=O)c2cc(-c3cc4c(cc3C(=O)N3Cc5ccccc5C[C@H]3C)CN(C(=O)Cc3ccccc3C#N)CC4)n(C)c2C)c2ccc(O)cc2)cc(C#N)n1C` [Example 12, N-(5-cyano-1,2-dimethyl-1H-pyrrol-3-yl)-5-{2-[2-(2-cyanophenyl)acetyl]-7-[(3R)-3-methyl-1,2,3,4-tetrahydroisoquinoline-2-carbonyl]-1,2,3,4-tetrahydroisoquinolin-6-yl}-N-(4-hydroxyphenyl)-1,2-dimethyl-1H-pyrrole-3-carboxamide], the “Ratio (G101V/WT)” value in assay [1] amounted to 9.14. The results for the IC50 in assay [1] and in assay [6] were 0.0676 µM and 0.0074 µM, respectively. The figures for the Ki in assay [2], in assay [5] and in assay [7] (setting [8]) were 0.4 nM, 1.7 nM and 0.22 nM, respectively. Also, the “TR_FRET EKI G101V/WT selectivty ratio” value in assay [4] was found to be 7.7.
For `Cc1c(C(=O)N(c2ccccc2)c2cnn(C)c2)cc(-c2cc3c(cc2C(=O)N2Cc4ccccc4C[C@H]2C)CN(C(=O)Cc2ccc(OCCN(C)C)cc2)CC3)n1C` [Example 208, 5-[2-[2-[4-[2-(dimethylamino)ethoxy]phenyl]acetyl]-7-[(3R)-3-methyl-3,4-dihydro-1H-isoquinoline-2-carbonyl]-3,4-dihydro-1H-isoquinolin-6-yl]-1,2-dimethyl-N-(1-methylpyrazol-4-yl)-N-phenyl-pyrrole-3-carboxamide], the Ki in assay [2] came to 0.12 nM; in assay [3], 8.8 nM; in assay [5] it was 3.7 nM; in assay [7] (setting [8]), 0.04 nM. Moreover, the “TR_FRET EKI BCLxL/WT selectivty ratio” value in assay [3] turned out to be 200.0. Besides, the “TR_FRET EKI G101V/WT selectivty ratio” value in assay [4] worked out at 83.8. In assay [6], this compound registered an IC50 of 0.0301 µM.
As for `Cc1c(C(=O)N(c2ccccc2)c2cnn(C)c2)cc(-c2cc3c(cc2C(=O)N2Cc4ccccc4C[C@H]2C)CN(C(=O)Cc2ccc(OCCN4CCOCC4)cc2)CC3)n1C` [Example 184, 1,2-dimethyl-5-[7-[(3R)-3-methyl-3,4-dihydro-1H-isoquinoline-2-carbonyl]-2-[2-[4-(2-morpholinoethoxy)phenyl]acetyl]-3,4-dihydro-1H-isoquinolin-6-yl]-N-(1-methylpyrazol-4-yl)-N-phenyl-pyrrole-3-carboxamide], the Ki in assay [2] turned out to be 0.09 nM; in assay [3], 12.3 nM; in assay [5], 2 nM; in assay [7] (setting [8]) it was 0.03 nM. Moreover, the “TR_FRET EKI BCLxL/WT selectivty ratio” value in assay [3] stood at 411.3. Further, in assay [4], the “TR_FRET EKI G101V/WT selectivty ratio” value is listed as 66.2. In addition, in assay [6], the midpoint of inhibition, the IC50, lay at 0.0061 µM.
As to `Cc1c(C(=O)N(c2ccccc2)c2ccnn2C)cc(-c2cc3c(cc2C(=O)N2Cc4ccccc4C[C@H]2C)CN(C(=O)Cc2ccc(OCCN4CCOCC4)cc2)CC3)n1C` [Example 220, 1,2-dimethyl-5-[7-[(3R)-3-methyl-3,4-dihydro-1H-isoquinoline-2-carbonyl]-2-[2-[4-(2-morpholinoethoxy)phenyl]acetyl]-3,4-dihydro-1H-isoquinolin-6-yl]-N-(2-methylpyrazol-3-yl)-N-phenyl-pyrrole-3-carboxamide], the Ki in assay [2] was 0.37 nM; in assay [3] it was 42.3 nM; in assay [5] it was 14.3 nM; in assay [7] (setting [8]), 0.13 nM. For the same compound, the “TR_FRET EKI BCLxL/WT selectivty ratio” value in assay [3] came out at 325.6. For the same compound, the “TR_FRET EKI G101V/WT selectivty ratio” value in assay [4] came to 109.9. The compound further gave an IC50 in assay [6] of 0.0907 µM.
On to `Cc1c(C(=O)N(c2ccccc2)c2cnn(C)c2)cc(-c2cc3c(cc2C(=O)N2Cc4ccccc4C[C@H]2C)CN(C(=O)Cc2ccc(OCCN(C)C)cc2F)CC3)n1C` [Example 239], for which the Ki was 0.132 nM in assay [2]; 4.3 nM in assay [3]; 5.25 nM in assay [5]; 0.066 nM in assay [7] (Ki determined from IC50, read-out: TR_FRET EKI_Bcl2). In addition, the “TR_FRET EKI BCLxL/WT selectivty” value in assay [3] (ratio of Ki BCLxL to BCL2 WT) was determined as 65.2. The “TR_FRET EKI G101V/WT selectivty” value in assay [4] (ratio of Ki BCL2 G101V to BCL2 WT) came to 79.5. Moreover, in assay [6], the IC50 came out at 0.0128 µM.
On to `Cc1nn(C)cc1N(C(=O)c1cc(-c2cc3c(cc2C(=O)N2Cc4ccccc4C[C@H]2C)CN(C(=O)Cc2ccc(OCCN4CCOCC4)cc2)CC3)n(C)c1C)c1ccccc1` [Example 188, N-(1,3-dimethylpyrazol-4-yl)-1,2-dimethyl-5-[7-[(3R)-3-methyl-3,4-dihydro-1H-isoquinoline-2-carbonyl]-2-[2-[4-(2-morpholinoethoxy)phenyl]acetyl]-3,4-dihydro-1H-isoquinolin-6-yl]-N-phenyl-pyrrole-3-carboxamide], for which the Ki in assay [2] amounted to 0.09 nM; in assay [3], 23.9 nM; in assay [5], 2.2 nM; in assay [7] (setting [8]) it was 0.03 nM. Further, the “TR_FRET EKI BCLxL/WT selectivty ratio” value in assay [3] stood at 769.6. Also, the “TR_FRET EKI G101V/WT selectivty ratio” value in assay [4] stood at 71.6. The same compound returned an IC50 in assay [6] of 0.0113 µM.
